Experimental data from patent US20080207502A1, “Anti-Angiogenic Peptides and Methods of Use Thereof” (SOPHERION THERAPEUTICS, INC., priority 2004, published 2008).
Each block holds one sequence with its values, some of them ahead of it.

Legend:
[1] = system: Bovine Retinal Endothelial Cells (BRE); test: VEGF-mediated survival/proliferation of BRE cells (WST1); assay type: cell-based
Protocol: (§1) The anti-angiogenic activities of the peptides were tested by measuring the level of inhibition of VEGF and bFGF mediated survival/proliferation of Bovine Retinal Endothelial Cells (BRE), Human Dermal Microvasculature Endothelial Cells, and Human Umbilical Vein Endothelial Cells, all of which are standard cell lines used to test anti-angiogenic compounds.
Bovine retinal endothelial (BRE) cells were maintained in Cambrex EG2 media. For non-adherent cell assays, on day one cells were starved for either 6 hours or overnight, then trypsinized and plated in 96-well plates in 100 μl of Optimem plus 1% fetal bovine serum (FBS). One hundred μl of Optimem plus 1% FBS was added to the wells containing, where appropriate, VEGF to a final concentration of 25 ng/ml, and the various peptides to final concentrations as described. For adherent cells, cells were plated in 96-well plates in complete media, allowed to adhere overnight, washed in starvation media (Optimem plus 1% FBS) and then starved during the day. At the end of the day, 100 μl of Optimem plus 1% FBS was added to the wells containing, where appropriate, VEGF to a final concentration of 25 ng/ml and the various peptides to final concentrations as described.
(§2) In all cases, after 72 hours incubation, the amount of live cells in each well was measured with the WST1 assay (Roche).

[2] = Biological activity of D-amino acid versions of ST100,038 (assay not specified); details: ST100,045 tested against ST100,059 and a control
Protocol: D-amino acid peptides can be made by generating a D-amino acid peptide with the same sequence as a L-amino acid peptide or by preparing a retro inverso form of a peptide. ST100,045 (SEQ ID NO.: 31) has the same sequence as ST100,038 (SEQ ID NO.: 29) was tested against ST100,059 (SEQ ID NO.: 30) which is the retro inverso version of ST100,038 and a control.

[3] = system: B16 melanoma tumor; test: Subcutaneous B16 melanoma tumor model in vivo; design: species or system mouse; details: vs untreated controls
Protocol: Because of the importance of the angiogenic process for tumorigenesis, miniproteins as described herein, were hypothesized to show good anti-tumor activity. The peptides of the invention were tested in an in vivo model of anti-tumor activity. This model compares the growth of sub cutaneous B16 melanoma tumor in vivo either untreated or treated with various amount of miniproteins described in this application. This model is widely accepted in the art as a model to test the anti-tumor activity of compounds that inhibit tumor growth because they have anti-angiogenic activity.
Male C57BL/6 mice were obtained with a mean body weight of 20±2 g. Mouse B16-F1 melanoma cells were implanted subcutaneously (5×10^5 cell per animal). Peptides (formulated in water) were administered ip daily at the amount indicated starting the day after cells injection. In general, tumors became palpable around 9 days after injection of cells. Tumor were then measured every 2 days.

[4] = system: binding of radiolabeled VEGF to endothelial cells; test: Inhibition of binding of radiolabeled VEGF to endothelial cells; details: concentration of 30 μM; for inhibition of VEGF binding: FIG. 7; for VEGF binding inhibition: legend of FIG. 7
Source text: The activity of the peptides SEQ ID NO.: 1 and SEQ ID NO.: 2 in blocking the binding of radiolabeled VEGF to endothelial cells is shown in FIG. 7.

[5] = Heparin binding activity by liquid chromatography on Hi Trap Heparin HP column (NaCl elution); details: step gradient 500-1000 mM NaCl in 10 mM NaH2PO4 pH 7
Source text: Liquid chromatography was used to determine the relative levels of heparin binding activity of the individual heparin binding domains and of the anti-angiogenic miniproteins that contains them. In this assay, the strength of the heparin binding activity is proportional to the amount of NaCl that is required to elute the peptide bound to the heparin column. Peptides with low binding activity are eluted with lower NaCl concentration, whereas higher concentrations of NaCl are required for peptides with higher binding activity.
Hi Trap Heparin HP column (1 ml, Amersham Biosciences) was equilibrated with 10 column volumes (CV) of equilibration (EQ) buffer=10 mM NaH2PO4pH 7. All buffers were loaded onto columns via syringes. 500 μl fractions are collected (flow rate=1 ml/minute). 500 μg of peptide (1 mg/ml, resuspended in EQ buffer) was added to each column and the flow through was collected for analysis. The columns were then washed with 3 CV of EQ buffer. Peptides are then eluted with a step gradient of 500, 625, 750, 875 mM NaCl in EQ buffer, 2 CV per each step. A final step of 3 CV of 1000 mM NaCl in EQ buffer was collected in 500 μl fractions. The A210 nm was measured using EQ and elution buffers as blanks.

[6] = system: mouse leukemia L1210 cells; test: Tumor cell proliferation (WST-1), L1210; assay type: cell-based; details: FIG. 11
Protocol: Peptides to be tested were prepared at a stock concentration of 10 mM in sterile phosphate buffered saline. Cancer cell lines obtained from the American Type Culture Collection (MG-63, HT1080, A498, BxPC3, 786-0, PC-3, B16F1, B16F10, P388D1, Jurkat, MOLT4, THP-1, U-937, L1210, RPMI 8226, NCI H929, U266B1, K562) were cultured under appropriate conditions as described in the literature. Cell culture media and reagents were obtained from ATCC (Manassas, Va.), Invitrogen (Carlsbad, Calif.) or Mediatech (Herndon, Va.). Exponentially growing cultures were used for cell proliferation assays. Adherent cells were plated at a concentration of 100000 cells per milliter in growth media overnight (18-24 h) and treated the next day in a low serum media (growth media with 1% FBS for MG-63, HT1080, A498, BxPC3, PC-3, B16F1, B16F10. 786-0 cells were treated in media with 5% FBS). Suspension cell lines (P388D1, Jurkat, MOLT4, THP-1, U-937, L1210, RPMI 8226, NCI H929, U266B1, and K562) were diluted to a concentration of 100,000 cells per ml and treated on the same day with peptides. Peptides were diluted in treatment media and cells were treated for 48 or 72 hours depending on the cell line. Each dose was tested in triplicate for each experiment, and experiments were repeated for a minimum of three discrete times. After incubation, the relative number of cells was determined using WST-1 (Roche Applied Science). A 9.5 μl aliquot of WST-1 was added to each well. The plate was immediately read at 440 nm using a Bio-Tek PowerWave XS microplate reader, incubated for 2-3 hours at 37° C. and then read again. Cell proliferation was determined as the percent of the control cell proliferation. The absorbance of each well at time 0 was subtracted from the value of the final reading. Afterwards the blank values were averaged and subtracted from each test and control value. Finally, each test absorbance was divided by the average of the control absorbances and multiplied by 100 to obtain the percent of control. […]

[7] = system: L1210 murine leukemia; test: L1210 murine leukemia intravenous model in vivo; design: species or system mouse; details: dosed IP, DBA/2 mice, FIG. 15a
Protocol: Antitumor activity of test peptides, administered intraperitoneally (IP), were evaluated against L1210 murine leukemia cells implanted intravenously (IV) in DBA/2 mice.
Studies generally consisted of randomly-assigned groups of 8 mice per group, which were inoculated IV with 1×10^5 cells per mouse from an in vivo leukemia cell line. In addition to groups tested with test peptides, studies usually included a vehicle-treated control group and a positive control group treated with an agent known to be active in the L1210 leukemia model. Starting one day after tumor inoculation (inoculation day defined as Day 0), mice were treated IP with either vehicle or test peptides in various schedules. Generally this consisted of treatment every other day for approximately 1 week (e.g., Days 1, 3, 5 and 7). A positive agent (e.g., cyclophosphamide) was usually given as a single IP injection on Day 1. All dosing solutions were prepared on each day of treatment. Survival was monitored daily and body weights were measured twice weekly. Anti-tumor activity was assessed by the increase in lifespan of the treated groups in comparison to the vehicle-treated control group. Studies with the L1210 leukemia model were limited to 30 days.

[8] = system: Human Umbilical Vein Endothelial Cells; test: bFGF-mediated survival/proliferation of human umbilical vein endothelial cells (WST1); assay type: cell-based; details: for potency in blocking bFGF stimulation: compared with ST100,068, FIG. 6; for inhibition of bFGF mediated survival: comparison of several peptides, FIG. 10
Protocol: as §1
Human umbilical cord endothelial (HUVEC) cells were maintained in Cambrex EGM-2MV media. On day one, cells were starved overnight in 1% FBS in M200 media (Cascade Biologicals). The morning after, the media were replaced with serum-free media (control) or media containing 25 ng/ml of human VEGF165 and the various peptides to final concentrations as described.
as §2

Sequence: ATSLPPHSSQSP (listed as Homo sapiens) [ST100,038]
Concentrations that completely abolished the VEGF-induced increase in WST-1 value ([1]; VEGF 25 ng/ml, 72 hours, FIG. 4): above 40 μM

Sequence: ATSLPPHSSQSP (listed as Homo sapiens) [ST100,045]
biologically active [2]: Only the retro inverso form of ST100,038, (ST100,059; SEQ ID NO.: 30) was found to be biologically active

Sequence: ATSLPPHSSQSPGGGPPAARGRRAARGRR (listed as Homo sapiens) [ST100,062]
inhibition of tumor growth ([3]; 20 mg/kg daily IP, FIG. 12): clearly inhibit tumor growth

Sequence: PYAGRGDSVVYGLGGGPGAARGRRAARGRR [ST100,033]
inhibition of VEGF binding [4]: ~100%
VEGF binding inhibition [4]: completely abolished VEGF binding

[NaCl] for elution [5]: 1000 mM
Sequence: RAAKKRKRAAKKRARAAKKRLGYVVSDGRGDYP (RAAKKRARAAKKRARAAKKRLGYVVSDGRGDYP; listed as Homo sapiens) [ST100,079]

[NaCl] for elution [5]: 1000 mM
Sequence: RKKAARARKKAARARKKAARRLGYVVSDGRGDYP (listed as Homo sapiens) [ST100,081]

[NaCl] for elution [5]: 1100 mM
Sequence: RKRAALRARKRAARARKRAARR (RKRAARARKRAARARKRAARR; listed as Homo sapiens) [ST100,083]

Sequence: RLGYVVSDGRGDYP (listed as Homo sapiens) [ST100,077]
blocked cell proliferation or induced cell death [6]: Neither

Sequence: RLGYVVSDGRGDYPKKKRRGRAARRGRAA [ST100,065]
[NaCl] for elution [5]: 750 mM
mice (cured mice) survived longer than 30 days [7]: Sixty to eighty percent
survival [7]: statistically significant increases in survival

[NaCl] for elution [5]: 1000 mM
Sequence: RRGRAAKKKRRGRAAKKK (listed as Homo sapiens) [ST100,082]

[NaCl] for elution [5]: 1000 mM
Sequence: RRGRAAKKKRRGRAAKKKPSQSSHPPLSTA (listed as Homo sapiens) [ST100,072]
potency in blocking bFGF stimulation [8]: more potent in blocking bFGF stimulation

Sequence: RRGRAAKKKRRGRAAKKKRLGYVVSDGRGDYP [ST100,074]
[NaCl] for elution [5]: 1000 mM
inhibition of bFGF mediated survival [8]: the most active in inhibiting bFGF stimulation
mice (cured mice) survived longer than 30 days [7]: Sixty to eighty percent
survival [7]: statistically significant increases in survival

Sequence: RRGRAARRGRAAKKK (listed as Homo sapiens) [ST100,078]
inhibition of bFGF mediated survival [8]: not as potent
blocked cell proliferation or induced cell death [6]: Neither

Sequence: RRGRAARRGRAAKKKPSQSSHPPLSTA (listed as Homo sapiens) [ST100,068]
potency in blocking VEGF stimulation ([1]; compared with ST100,059, FIG. 5): more potent in blocking VEGF stimulation
inhibition of VEGF stimulation ([1]; increasing doses, FIG. 5): inhibited with increasing doses
inhibition of tumor growth ([3]; 20 mg/kg and 40 mg/kg daily IP, FIG. 13): able to inhibit tumor growth

[NaCl] for elution [5]: 1000 mM
Sequence: RRGRAARRGRAARRGRAAKKKPSQSSHPPLSTA (listed as Homo sapiens) [ST100,073]
potency in blocking bFGF stimulation [8]: more potent in blocking bFGF stimulation
inhibition of bFGF mediated survival [8]: the most active in inhibiting bFGF stimulation
inhibition of tumor growth ([3]; 20 mg/kg daily IP, FIG. 14): able to inhibit tumor growth

Sequence: YDGRGDSVVYGLKKKAARGRRAARGRR [ST100,032]
inhibition of VEGF binding [4]: ~100%
VEGF binding inhibition [4]: completely abolished VEGF binding
